According to ChEMBL document CHEMBL1201862, “PubChem BioAssay data set” (2004):
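Interpolation was linear, between the two tested concentrations surrounding the appropriate level; five concentrations were tested over 48 hours in 96-well plates. GI50 = concentration required for 50% inhibition of growth.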 Activity calls are given as the source filed them. Rule as the data show it: active = GI50 up to about 1.1 µM and inactive = higher.

Tests used:
Assay in all cases: NCI-60 cell line screen, 48 h
SNB-75 = test system: SNB-75
CAKI-1 = test system: CAKI-1
MOLT-4 = test system: MOLT-4
NCI-H460 = test system: NCI-H460
SF-268 = test system: SF-268
RPMI-8226 = test system: RPMI-8226
K562 = test system: K562
ACHN = test system: ACHN
SF-539 = test system: SF-539
SN12C = test system: SN12C
MDA-MB-435 = test system: MDA-MB-435
DU-145 = test system: DU-145
MDA-N = test system: MDA-N
MDA-MB-231 = test system: MDA-MB-231
HOP-92 = test system: HOP-92
NCI/ADR-RES = test system: NCI/ADR-RES
SW-620 = test system: SW-620
RXF 393 = test system: RXF 393
CCRF-CEM = test system: CCRF-CEM

Structure (SMILES) | GI50 (SNB-75) | GI50 (CAKI-1) | GI50 (MOLT-4) | GI50 (NCI-H460) | GI50 (SF-268) | GI50 (RPMI-8226) | GI50 (K562) | GI50 (ACHN) | GI50 (SF-539) | GI50 (SN12C) | GI50 (MDA-MB-435) | GI50 (DU-145) | GI50 (MDA-N) | GI50 (MDA-MB-231) | GI50 (HOP-92) | GI50 (NCI/ADR-RES) | GI50 (SW-620) | GI50 (RXF 393) | GI50 (CCRF-CEM)
CN(C)Cc1ccc(C(C)(C)C)cc1-c1cc(C(C)(C)C)ccc1CN(C)C | 88.1 µM (inactive) | > 100 µM (inactive) | 40.2 µM (inactive) | 51.1 µM (inactive) | > 100 µM (inactive) | 26.9 µM (inactive) | 27.8 µM (inactive) | > 100 µM (inactive) | > 100 µM (inactive) | 22.2 µM (inactive) | 55.6 µM (inactive) | > 100 µM (inactive) | 48.5 µM (inactive) | 70.5 µM (inactive) | > 100 µM (inactive) | > 100 µM (inactive) | > 100 µM (inactive) | 97.1 µM (inactive) | 42.7 µM (inactive)
Oc1nc(-c2ccc3ccccc3c2)nc2ccccc12 | 4.53 µM (inactive) | 75 µM (inactive) | > 100 µM (inactive) | 21.9 µM (inactive) | 26.3 µM (inactive) | > 100 µM (inactive) | > 100 µM (inactive) | 13.9 µM (inactive) |  | 54.1 µM (inactive) | 61.9 µM (inactive) | > 100 µM (inactive) | 49.2 µM (inactive) | 29 µM (inactive) | 17.4 µM (inactive) | 20 µM (inactive) | > 100 µM (inactive) | 25.4 µM (inactive) | 
C[C@]12CCC3c4ccc(O)cc4CC[C@H]3C1CC(=O)NC2=O (some centres not stated) |  | > 10 µM (inactive) | > 10 µM (inactive) | > 10 µM (inactive) | > 10 µM (inactive) | > 10 µM (inactive) | > 10 µM (inactive) | > 10 µM (inactive) | > 10 µM (inactive) | > 10 µM (inactive) | > 10 µM (inactive) | > 10 µM (inactive) | > 10 µM (inactive) | > 10 µM (inactive) | > 10 µM (inactive) | > 10 µM (inactive) | > 10 µM (inactive) | > 10 µM (inactive) | > 10 µM (inactive)
CC(C)(CO)N1C(=O)c2ccccc2C1(O)c1ccc(Cl)cc1 (configuration not stated) | > 100 µM (inactive) | > 100 µM (inactive) | > 100 µM (inactive) | 84.9 µM (inactive) | > 100 µM (inactive) | > 100 µM (inactive) | > 100 µM (inactive) | > 100 µM (inactive) |  | > 100 µM (inactive) | > 100 µM (inactive) | > 100 µM (inactive) | > 100 µM (inactive) | > 100 µM (inactive) |  | > 100 µM (inactive) | > 100 µM (inactive) | 39.9 µM (inactive) | > 100 µM (inactive)
CCc1nc2c(c(N(C)C)c1C(=O)OC)CCc1ccccc1-2 | 35.4 µM (inactive) | 51.1 µM (inactive) | 4.14 µM (inactive) | 30.6 µM (inactive) | 47.1 µM (inactive) | 18.7 µM (inactive) | 20.2 µM (inactive) | 23 µM (inactive) | 39.4 µM (inactive) | 28.8 µM (inactive) | 23.4 µM (inactive) | 1.5 µM (inactive) | 26.2 µM (inactive) | 23.5 µM (inactive) | 65.2 µM (inactive) | 29.6 µM (inactive) | 32.8 µM (inactive) | 31.2 µM (inactive) | 2.45 µM (inactive)
CC(NC(=O)C(N)CC(=O)O)NC(=O)N1CCOCC1 (configuration not stated) | > 100 µM (inactive) | > 100 µM (inactive) | > 100 µM (inactive) | > 100 µM (inactive) | > 100 µM (inactive) | > 100 µM (inactive) | > 100 µM (inactive) | > 100 µM (inactive) | > 100 µM (inactive) | > 100 µM (inactive) | > 100 µM (inactive) | > 100 µM (inactive) | > 100 µM (inactive) | > 100 µM (inactive) |  | > 100 µM (inactive) | > 100 µM (inactive) | > 100 µM (inactive) | > 100 µM (inactive)
CCOC(=O)C1=[N+]([O-])OC2=C(O)CCCC21 (configuration not stated) | > 100 µM (inactive) | > 100 µM (inactive) | > 100 µM (inactive) | > 100 µM (inactive) | > 100 µM (inactive) | > 100 µM (inactive) | > 100 µM (inactive) | > 100 µM (inactive) |  | > 100 µM (inactive) | > 100 µM (inactive) | > 100 µM (inactive) | > 100 µM (inactive) | > 100 µM (inactive) | > 100 µM (inactive) | > 100 µM (inactive) | > 100 µM (inactive) | > 100 µM (inactive) | > 100 µM (inactive)
CC(=O)N1N=C(c2cc(C)ccc2O)CC1c1cccc(Cl)c1 (configuration not stated) |  | 27.3 µM (inactive) | 4.26 µM (inactive) | 8.85 µM (inactive) | 8.55 µM (inactive) | 6.24 µM (inactive) | 4.05 µM (inactive) | 16.1 µM (inactive) | 19.2 µM (inactive) | 17.5 µM (inactive) | 1.6 µM (inactive) | 51.9 µM (inactive) | 2.12 µM (inactive) | 17.5 µM (inactive) | 3.17 µM (inactive) | 6.03 µM (inactive) | 7.74 µM (inactive) | 11.3 µM (inactive) | 13.4 µM (inactive)
C/C(=N\n1c(Cc2ccccc2)n[nH]c1=O)c1ccccc1 |  | > 100 µM (inactive) | > 100 µM (inactive) |  | > 100 µM (inactive) | > 100 µM (inactive) | > 100 µM (inactive) | > 100 µM (inactive) | > 100 µM (inactive) | > 100 µM (inactive) | > 100 µM (inactive) | > 100 µM (inactive) | > 100 µM (inactive) | > 100 µM (inactive) | 26.8 µM (inactive) | > 100 µM (inactive) | > 100 µM (inactive) | > 100 µM (inactive) | > 100 µM (inactive)
O=[N+]([O-])c1ccc(N/N=C2/CC3=C2CCCCCCCCCC3)c([N+](=O)[O-])c1 | 44.4 µM (inactive) | > 100 µM (inactive) | > 100 µM (inactive) | > 100 µM (inactive) | > 100 µM (inactive) | > 100 µM (inactive) | > 100 µM (inactive) | > 100 µM (inactive) |  | > 100 µM (inactive) | > 100 µM (inactive) | > 100 µM (inactive) | > 100 µM (inactive) | 32.7 µM (inactive) |  | > 100 µM (inactive) | > 100 µM (inactive) | > 100 µM (inactive) | > 100 µM (inactive)
C=C(Cl)/C(=C\Br)CCC(Cl)C(C)C.C=C(Cl)/C(=C\Cl)CCC(Cl)C(C)C (configuration not stated) | 18 µM (inactive) | 17.8 µM (inactive) | 6.52 µM (inactive) | 18.1 µM (inactive) | 18.6 µM (inactive) |  | 4.03 µM (inactive) | 16.8 µM (inactive) | 18.2 µM (inactive) | 17.2 µM (inactive) | 15.3 µM (inactive) | 18 µM (inactive) | 15 µM (inactive) | 16.5 µM (inactive) | 15 µM (inactive) | 27.5 µM (inactive) | 2.75 µM (inactive) | 11.3 µM (inactive) | 5.62 µM (inactive)
Nc1c2c(nc3cc(F)c(F)cc13)CCC2 | 42.5 µM (inactive) | 47.5 µM (inactive) | 30.5 µM (inactive) | 22.1 µM (inactive) | 58.5 µM (inactive) | 43.9 µM (inactive) | 35.3 µM (inactive) | 32.6 µM (inactive) | 46 µM (inactive) | 43.2 µM (inactive) | 54 µM (inactive) | 52.6 µM (inactive) | 49 µM (inactive) | 56.1 µM (inactive) | 38.3 µM (inactive) | 60.1 µM (inactive) | 29.2 µM (inactive) | 33.5 µM (inactive) | 
O=C1O/C(=C/c2ccccc2)C(c2ccccc2)=C1O | 67.3 µM (inactive) | 47.3 µM (inactive) | 53.3 µM (inactive) |  |  | 28 µM (inactive) | 41.1 µM (inactive) | 74 µM (inactive) | 37.9 µM (inactive) | 33 µM (inactive) | 29.8 µM (inactive) | 26 µM (inactive) | 34 µM (inactive) | 38.1 µM (inactive) | 61.5 µM (inactive) | 34.7 µM (inactive) | 43.7 µM (inactive) | 24.3 µM (inactive) | 29.7 µM (inactive)
CCCCOC(C)(C)/C=C/C(O)[C@](C)(O)[C@H]1[C@H](O)C[C@@]2(C)[C@@H]3CCc4c(cc(OC5OC(CO)C(O)C(O)C5O)c(O)c4C)C3(C)C(=O)C[C@]12C (some centres not stated) | > 100 µM (inactive) | > 100 µM (inactive) | > 100 µM (inactive) | > 100 µM (inactive) | > 100 µM (inactive) |  | > 100 µM (inactive) | > 100 µM (inactive) | > 100 µM (inactive) | > 100 µM (inactive) | > 100 µM (inactive) | > 100 µM (inactive) | > 100 µM (inactive) | > 100 µM (inactive) | > 100 µM (inactive) | > 100 µM (inactive) | > 100 µM (inactive) | > 100 µM (inactive) | > 100 µM (inactive)
O=c1cc(-c2ccccc2F)[nH]c2ccc(N3CCCC3)cc12 | 63.2 µM (inactive) | < 0.001 µM (active) | 0.078 µM (active) | 0.0417 µM (active) | 0.0363 µM (active) | 0.0468 µM (active) | 0.0257 µM (active) | < 0.001 µM (active) | < 0.001 µM (active) | 0.17 µM (active) | < 0.001 µM (active) | 0.0535 µM (active) | 0.0135 µM (active) | 0.00122 µM (active) |  | 0.0352 µM (active) | < 0.001 µM (active) | 13 µM (inactive) | 0.0461 µM (active)
